# From ChEMBL document CHEMBL4823249, “Discovery of a Pyrimidinedione Derivative as a Potent and Orally Bioavailable Axl Inhibitor” (J Med Chem, 2021)
# What was measured:
# BaF3 [1] = experiment: Antiproliferative activity against mouse BaF3/TEL-AXL cells incubated for 72 hrs by SRB or CCK8 assay; details: BaF3, 72 h
# [2] = target: T1, Tyrosine-protein kinase receptor UFO (Homo sapiens, UniProt P30530); experiment: Inhibition of AXL (unknown origin) using poly [Glu, Tyr] 4:1 as substrate incubated for 60 mins in presence of ATP by ELISA
# T1 sequence (P30530 whole entry): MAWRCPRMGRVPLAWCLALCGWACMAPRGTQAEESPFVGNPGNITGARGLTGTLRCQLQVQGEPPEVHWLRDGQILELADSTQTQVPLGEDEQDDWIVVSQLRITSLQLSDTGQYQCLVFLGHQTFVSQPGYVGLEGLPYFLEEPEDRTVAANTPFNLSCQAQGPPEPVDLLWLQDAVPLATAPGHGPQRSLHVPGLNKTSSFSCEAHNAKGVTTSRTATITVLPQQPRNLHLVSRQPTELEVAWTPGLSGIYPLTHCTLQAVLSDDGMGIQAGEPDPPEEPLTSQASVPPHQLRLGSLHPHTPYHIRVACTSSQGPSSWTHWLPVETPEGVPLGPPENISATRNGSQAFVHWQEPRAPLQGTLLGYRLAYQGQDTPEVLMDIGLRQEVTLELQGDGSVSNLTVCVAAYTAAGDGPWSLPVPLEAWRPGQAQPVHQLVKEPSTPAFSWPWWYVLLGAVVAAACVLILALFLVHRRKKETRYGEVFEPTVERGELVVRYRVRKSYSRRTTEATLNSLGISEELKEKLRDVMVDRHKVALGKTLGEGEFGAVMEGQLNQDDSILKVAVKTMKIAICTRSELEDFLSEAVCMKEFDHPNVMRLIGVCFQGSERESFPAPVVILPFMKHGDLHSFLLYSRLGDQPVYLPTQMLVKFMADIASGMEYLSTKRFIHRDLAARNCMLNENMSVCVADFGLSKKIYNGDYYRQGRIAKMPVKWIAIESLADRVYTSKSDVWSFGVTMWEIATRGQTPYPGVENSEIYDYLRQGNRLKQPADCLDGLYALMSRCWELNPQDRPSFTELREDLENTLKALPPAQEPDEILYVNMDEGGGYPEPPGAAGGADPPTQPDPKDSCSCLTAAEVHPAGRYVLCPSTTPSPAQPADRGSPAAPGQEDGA
# BaF3 [3] = experiment: Antitumor activity against mouse BaF3/TEL-AXL cells xenografted in BALB/c nude mouse assessed as tumor growth inhibition at 50 mg/kg, po administered once daily for 14 days by caliper method; type: functional; details: 336 h, time 14 day, read-out: TGI
# U-87 MG = experiment: Antitumor activity against human U-87MG cells xenografted in BALB/c nude mouse assessed as tumor growth inhibition at 50 mg/kg, po administered once daily for 14 days by caliper method; type: functional, U-87MG ATCC; details: 336 h, time 14 day, read-out: TGI
# [4] = AUC(0 to t) in Sprague-Dawley rat at 3 mg/kg, po measured upto 24 hrs by LC-MS analysis; type: ADME, organism-based; set-up: route oral, dose 3 mg/kg, time <=24; details: in vivo
# [5] = AUC(0 to infinity) in Sprague-Dawley rat at 3 mg/kg, po measured upto 24 hrs by LC-MS analysis; type: ADME, organism-based; set-up: route oral, dose 3 mg/kg, time <=24; details: in vivo
# [6] = Half life in Sprague-Dawley rat at 3 mg/kg, po measured upto 24 hrs by LC-MS analysis; type: ADME, organism-based; details: in vivo
# [7] = Tmax in Sprague-Dawley rat at 3 mg/kg, po measured upto 24 hrs by LC-MS analysis; type: ADME, organism-based; details: in vivo
# [8] = Cmax in Sprague-Dawley rat at 3 mg/kg, po measured upto 24 hrs by LC-MS analysis; type: ADME, organism-based; set-up: route oral, dose 3 mg/kg, time <=24; details: in vivo
IC50 (BaF3 [1]) [nM],SMILES,also measured
< 0.2,CC(=O)Nc1cc(Oc2ccc(NC(=O)c3cn(C(C)C)c(=O)n(-c4ccc(F)cc4)c3=O)cc2F)ccn1,
,CCOc1cn(-c2ccc(F)cc2)nc1C(=O)Nc1ccc(Oc2ccncc2-c2cnn(C)c2)cc1,IC50 [2]: > 1000 nM
1.9,CC(C)n1cc(C(=O)Nc2ccc(Oc3ccnc(-c4cnn(C)c4)c3)c(F)c2)c(=O)n(-c2ccc(F)cc2)c1=O,
117,Nc1nc(Nc2ccc3c(c2)CC[C@@H](N2CCCC2)CC3)nn1-c1cc2c(nn1)-c1ccccc1CCC2 [BEMCENTINIB],inhibition in vivo at 50 mg/kg (BaF3 [3]): 108%
< 0.2,CCC(=O)Nc1cc(Oc2ccc(NC(=O)c3cn(C(C)C)c(=O)n(-c4ccc(F)cc4)c3=O)cc2F)ccn1,
19.5,CC(C)n1cc(C(=O)Nc2ccc(Oc3ccnc(-c4cnn(CCN5CCN(C)CC5)c4)c3)c(F)c2)c(=O)n(-c2ccc(F)cc2)c1=O,
,CCc1ccc2c(c1)c(=O)c(C(=O)Nc1ccc(Oc3ccncc3-c3cnn(C)c3)cc1)c(C)n2C,IC50 [2]: > 1000 nM
,Cn1cc(-c2cnccc2Oc2ccc(NC(=O)C3=C(c4ccccc4)c4ccccc4C3=O)cc2)cn1,IC50 [2]: > 1000 nM
6.3,CC(C)n1cc(C(=O)Nc2ccc(Oc3ccnc(-c4cnn(C5CC5)c4)c3)c(F)c2)c(=O)n(-c2ccc(F)cc2)c1=O,
43.2,CC(C)n1cc(C(=O)Nc2ccc(Oc3ccnc(NC(=O)C4CCC4)c3)c(F)c2)c(=O)n(-c2ccc(F)cc2)c1=O,
< 0.2,CC(C)n1cc(C(=O)Nc2ccc(Oc3ccnc(NC(=O)N4CCOCC4)c3)c(F)c2)c(=O)n(-c2ccc(F)cc2)c1=O,
2.8,CC(C)n1cc(C(=O)Nc2ccc(Oc3ccnc(-c4cnn(CC(C)(C)O)c4)c3)c(F)c2)c(=O)n(-c2ccc(F)cc2)c1=O,
,COc1cc(NC(=O)c2cn(C(C)C)c(=O)n(-c3ccc(F)cc3)c2=O)ccc1Oc1ccnc(-c2cnn(C)c2)c1,IC50 [2]: > 1000 nM
,Cn1cc(-c2cnccc2Oc2ccc(NC(=O)c3c4c(cn(-c5ccccc5)c3=O)C(=O)CCC4)cc2)cn1,IC50 [2]: > 1000 nM
7.6,CCc1nc(C(N)=O)c(Nc2ccc(N3CCC(N4CCN(C)CC4)CC3)c(OC)c2)nc1NC1CCOCC1 [GILTERITINIB],
,C[C@@H](Oc1cc(-c2cnn(C3CCNCC3)c2)cnc1N)c1c(Cl)ccc(F)c1Cl [CRIZOTINIB],inhibition in vivo at 50 mg/kg (U-87 MG): 93.3%
< 0.2,CC(C)n1cc(C(=O)Nc2ccc(Oc3ccnc(-c4cn[nH]c4)c3)c(F)c2)c(=O)n(-c2ccc(F)cc2)c1=O,AUC(0-t) at 24 h [4]: 31600 ng·h/mL; AUC(0-inf) [5]: 52200 ng·h/mL; half-life [6]: 18.2 h; Tmax [7]: 1.67 h; Cmax [8]: 2570 ng/mL
1,Cc1nn(C)cc1-c1cc(Oc2ccc(NC(=O)c3cn(C(C)C)c(=O)n(-c4ccc(F)cc4)c3=O)cc2F)ccn1,
< 0.2,CC(C)n1cc(C(=O)Nc2ccc(Oc3ccnc(NC(=O)N4CCCC4)c3)c(F)c2)c(=O)n(-c2ccc(F)cc2)c1=O,
